Measured values from PubChem BioAssay AID248 (DTP/NCI, 2004).
Where “and” joins values, the source holds several entries; their conditions need not be identical. Equal values may be shown once. Inconclusive results and toxic doses are left out.

Tested on: L1210 leukemia ip in BDF1 mice, survival T/C
Assay: NCI In Vivo Anticancer Drug Screen. Data for tumor model L1210 Leukemia (intraperitoneal) in B6D2F1 (BDF1) mice
Conditions: endpoint: mean survival time, higher = longer survival
In short: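 Tumor was transplanted into mice, which were then dosed with test compound or vehicle alone. Survival was recorded for each group, and the treated figure was expressed relative to the control figure.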

For `O=C1CN=C(c2ccc[nH]2)c2cc(Cl)ccc2N1`, the T/C (dose: 1.56 mg/kg/injection, schedule: Q03HX008 (oral), vehicle: saline with Tween-80) was 98 % of control, the T/C (dose: 1.56 mg/kg/injection, schedule: Q03HX016 (oral), vehicle: saline with Tween-80) was 103 % of control and the T/C (dose: 1.56 mg/kg/injection, schedule: Q03HX024 (oral), vehicle: saline with Tween-80) was 98 % of control. For the same molecule, the T/C (dose: 3.12 mg/kg/injection, schedule: Q03HX008 (oral), vehicle: saline with Tween-80) was 97 % of control, the T/C (dose: 3.12 mg/kg/injection, schedule: Q03HX016 (oral), vehicle: saline with Tween-80) was 102 % of control and the T/C (dose: 3.12 mg/kg/injection, schedule: Q03HX024 (oral), vehicle: saline with Tween-80) was 100 % of control. For the same molecule, the T/C (dose: 6.25 mg/kg/injection, schedule: Q03HX008 (oral), vehicle: saline with Tween-80) was 98 % of control, the T/C (dose: 6.25 mg/kg/injection, schedule: Q03HX016 (ip), vehicle: other) was 105 % of control and the T/C (dose: 6.25 mg/kg/injection, schedule: Q03HX016 (oral), vehicle: saline with Tween-80) was 98 % of control. The T/C (dose: 6.25 mg/kg/injection, schedule: Q03HX024 (ip), vehicle: other) was 114 % of control, the T/C (dose: 6.25 mg/kg/injection, schedule: Q03HX024 (oral), vehicle: saline with Tween-80) was 97 % of control and the T/C (dose: 7.13 mg/kg/injection, schedule: Q01DX009 (ip), vehicle: clinical formulation) was 102 % of control. The T/C (dose: 12.5 mg/kg/injection, schedule: Q03HX008 (oral), vehicle: saline with Tween-80) was 102 % of control, the T/C (dose: 12.5 mg/kg/injection, schedule: Q03HX016 (ip), vehicle: other) was 104 % of control and the T/C (dose: 12.5 mg/kg/injection, schedule: Q03HX016 (oral), vehicle: saline with Tween-80) was 97 % of control. The T/C (dose: 12.5 mg/kg/injection, schedule: Q03HX024 (ip), vehicle: other) was 114 % of control, the T/C (dose: 12.5 mg/kg/injection, schedule: Q03HX024 (oral), vehicle: saline with Tween-80) was 101 % of control and the T/C (dose: 14.2 mg/kg/injection, schedule: Q01DX009 (ip), vehicle: clinical formulation) was 103 % of control. For the same molecule, the T/C (dose: 25.0 mg/kg/injection, schedule: Q01DX006 (iv), vehicle: other) was 100 % of control, the T/C (dose: 25.0 mg/kg/injection, schedule: Q03HX008 (oral), vehicle: saline with Tween-80) was 100 % of control and 101 % of control and the T/C (dose: 25.0 mg/kg/injection, schedule: Q03HX016 (ip), vehicle: other) was 112 % of control. For the same molecule, the T/C (dose: 25.0 mg/kg/injection, schedule: Q03HX016 (oral), vehicle: saline with Tween-80) was 95 % of control and 103 % of control, the T/C (dose: 25.0 mg/kg/injection, schedule: Q03HX024 (oral), vehicle: saline with Tween-80) was 95 % of control and 98 % of control and the T/C (dose: 33.0 mg/kg/injection, schedule: Q01DX015 (ip), vehicle: other) was 123 % of control. For the same molecule, the T/C (dose: 33.0 mg/kg/injection, schedule: Q01DX Z (ip), vehicle: carboxymethylcellulose (CMC)) was 120 % of control, the T/C (dose: 34.0 mg/kg/injection, schedule: Q01DX009 (ip), vehicle: other) was 105 % of control and the T/C (dose: 50.0 mg/kg/injection, schedule: Q01DX001 (iv), vehicle: other) was 101 % of control. The T/C (dose: 50.0 mg/kg/injection, schedule: Q01DX006 (iv), vehicle: other) was 102 % of control, the T/C (dose: 50.0 mg/kg/injection, schedule: Q01DX009 (ip), vehicle: Klucel (hydroxypropylcellulose) (HPC)) was 103 % of control and the T/C (dose: 50.0 mg/kg/injection, schedule: Q01DX009 (ip), vehicle: water) was 118 % of control. For the same molecule, the T/C (dose: 50.0 mg/kg/injection, schedule: Q01DX015 (ip), vehicle: other) was 121 % of control, the T/C (dose: 50.0 mg/kg/injection, schedule: Q01DX Z (ip), vehicle: carboxymethylcellulose (CMC)) was 155 % of control and the T/C (dose: 50.0 mg/kg/injection, schedule: Q03HX008 (oral), vehicle: saline with Tween-80) was 108 % of control. The T/C (dose: 50.0 mg/kg/injection, schedule: Q03HX016 (ip), vehicle: other) was 122 % of control, the T/C (dose: 50.0 mg/kg/injection, schedule: Q03HX016 (oral), vehicle: saline with Tween-80) was 112 % of control and the T/C (dose: 50.0 mg/kg/injection, schedule: Q03HX024 (ip), vehicle: other) was 150 % of control. The T/C (dose: 50.0 mg/kg/injection, schedule: Q03HX024 (oral), vehicle: saline with Tween-80) was 110 % of control, the T/C (dose: 50.0 mg/kg/injection, schedule: Q04DX003 (ip), vehicle: other) was 108 % of control and the T/C (dose: 50.0 mg/kg/injection, schedule: Q08DX002 (ip), vehicle: other) was 96 % of control. The T/C (dose: 52.0 mg/kg/injection, schedule: Q01DX009 (ip), vehicle: other) was 98 % of control, the T/C (dose: 75.0 mg/kg/injection, schedule: Q01DX Z (ip), vehicle: carboxymethylcellulose (CMC)) was 174 % of control and the T/C (dose: 80.0 mg/kg/injection, schedule: Q01DX009 (ip), vehicle: other) was 108 % of control. The T/C (dose: 100.0 mg/kg/injection, schedule: Q01DX001 (ip), vehicle: other) was 98 % of control, the T/C (dose: 100.0 mg/kg/injection, schedule: Q01DX001 (iv), vehicle: other) was 101 % of control and the T/C (dose: 100.0 mg/kg/injection, schedule: Q01DX001 (oral), vehicle: saline with Tween-80) was 102 % of control. The T/C (dose: 100.0 mg/kg/injection, schedule: Q01DX006 (iv), vehicle: other) was 110 % of control, the T/C (dose: 100.0 mg/kg/injection, schedule: Q01DX009 (ip), vehicle: Klucel (hydroxypropylcellulose) (HPC)) was 105 % of control and the T/C (dose: 100.0 mg/kg/injection, schedule: Q01DX009 (oral), vehicle: saline with Tween-80) was 114 % of control.
